Ten compounds from the SangsterLogP compilation can be followed below.

A word on the logP: it is the decadic logarithm of the partition coefficient of the neutral form, usually between octanol and water. Higher therefore signals a more lipophilic compound.

A short description of data set [1]: method code SF-AS, from DOI: 10.1021/jo01283a049.
Data set [2] is described as follows: method code SF-CR, from DOI: 10.1021/jo01283a049.

In data set [1], `CNC(=S)Nc1ccccc1` showed a logP of 0.85. `CCCCCF` gave a logP of 2.33.

In turn, `c1ccc2cnccc2c1` returned a logP in data set [1] of 2.08. `OCc1ccc2c(c1)OCO2`: the logP in data set [1] amounted to 1.05.

In turn, `CCOC(=O)CC` returned a lipophilicity (logP) of 1.21.

Take `CCSCC`: in data set [1], the logP turned out to be 1.95. On the same count and under the same terms, the value for `CN(C(N)=S)c1ccccc1` was 0.85; that for `CC12CCC(C(=O)C1=O)C2(C)C` (stereo not given) was 1.52. Compound `CCCBr` yielded a logP of 2.1. Compound `CCCC(N)=O` displayed a logP in data set [2] of -0.21.
